Molecular target: Tyrosine-protein kinase JAK3 (Homo sapiens) (UniProt P52333)
Assay: JAK3 kinase inhibitors, dose response, biochemical, purified enzyme (AID 1224891)
Conditions: recombinant JAK3 kinase domain, 32P-ATP radiometric

Tyrosine-protein kinase JAK3 (Homo sapiens), sequence (P52333 whole entry, looked up): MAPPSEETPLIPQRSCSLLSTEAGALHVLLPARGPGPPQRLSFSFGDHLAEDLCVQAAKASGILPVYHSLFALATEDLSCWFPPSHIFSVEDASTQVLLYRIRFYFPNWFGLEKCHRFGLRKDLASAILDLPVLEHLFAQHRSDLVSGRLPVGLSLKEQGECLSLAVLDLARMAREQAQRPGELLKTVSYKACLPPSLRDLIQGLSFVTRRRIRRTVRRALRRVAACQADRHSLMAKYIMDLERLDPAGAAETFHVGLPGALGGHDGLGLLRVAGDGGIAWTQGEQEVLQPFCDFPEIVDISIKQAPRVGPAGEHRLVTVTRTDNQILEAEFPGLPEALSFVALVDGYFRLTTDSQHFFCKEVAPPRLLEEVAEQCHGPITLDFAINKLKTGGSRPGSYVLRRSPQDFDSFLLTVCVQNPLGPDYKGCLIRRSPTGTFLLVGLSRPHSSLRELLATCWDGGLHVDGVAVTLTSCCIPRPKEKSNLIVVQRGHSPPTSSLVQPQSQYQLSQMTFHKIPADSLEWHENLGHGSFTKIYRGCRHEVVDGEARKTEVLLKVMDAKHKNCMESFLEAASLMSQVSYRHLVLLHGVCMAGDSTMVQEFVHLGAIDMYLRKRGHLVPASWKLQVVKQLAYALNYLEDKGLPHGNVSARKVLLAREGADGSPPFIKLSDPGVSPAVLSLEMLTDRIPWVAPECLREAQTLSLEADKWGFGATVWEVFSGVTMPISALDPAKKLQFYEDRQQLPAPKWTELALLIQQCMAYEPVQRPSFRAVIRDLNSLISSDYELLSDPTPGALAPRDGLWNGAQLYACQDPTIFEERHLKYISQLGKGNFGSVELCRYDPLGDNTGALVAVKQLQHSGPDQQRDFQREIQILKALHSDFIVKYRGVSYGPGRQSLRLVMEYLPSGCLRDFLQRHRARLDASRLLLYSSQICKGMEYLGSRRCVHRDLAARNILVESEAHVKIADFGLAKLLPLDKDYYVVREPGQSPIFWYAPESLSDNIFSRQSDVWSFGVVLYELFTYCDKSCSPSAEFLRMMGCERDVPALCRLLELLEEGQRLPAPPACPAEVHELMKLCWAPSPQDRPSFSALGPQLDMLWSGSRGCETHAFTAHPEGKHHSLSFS

## CCOC(=O)c1c[nH]c2ncnc(-c3cc(NC(=O)CC)ccc3F)c12
  IC50: 1920 nM

Source: PubChem BioAssay AID1224891
